“Also recorded” adds a separate entry of the source. No end group written: not given here.
How the values were obtained:
[1] = system: S. mutans wild-type UA159; assay: S. mutans biofilms formed on polystyrene microtiter plates (b), SDM-glucose, safranin (first study); type: cell-based, Streptococcus mutans; details: 5 μg/ml of peptide analog; ↓ = reduced biomass compared to biofilm grown in presence of wild-type CSP
Protocol: Biofilms were developed in 96-well polystyrene microtiter plates. […] Wells without cells were used as blank controls. […] After the incubation, the planktonic cells were carefully removed and the plates were air dried overnight. The plates were then stained with 0.01% (wt/vol) safranin for 10 min, rinsed with sterile distilled water and air dried. Biofilms were quantified by measuring the absorbance of stained biofilms at 490 nm with a microplate reader (model 3550; Bio-Rad Laboratories, Richmond, Calif.).

[2] = system: S. mutans wild-type UA159; assay: S. mutans acid resistance assay (growth in THYE at pH 7.5 and pH 5.5); type: cell-based, Streptococcus mutans; details: 5 μg/ml of peptide analog; for Growth (pH 7.5): THYE pH 7.5; for Acid resistance (pH 5.5): growth in THYE pH 5.5
Protocol: The effect of peptides on acid tolerance was evaluated by assessment of growth in THYE at pH 7.5 and pH 5.5. Overnight S. mutans wild-type UA159 cells were diluted (1:20) with prewarmed THYE broth and incubated at 37° C. in air with 5% CO2 until an OD600 of approximately 0.4 was reached. A 20-fold dilution was made into 400 μl of either THYE pH 7.5 or THYE pH 5.5 broth containing different concentrations (0, 0.1, 0.5, 2, and 5 μg per ml) of peptide analogs and added in the individual wells of a 100-well Bioscreen C plate in triplicate. Wells without cells were used as blank controls. A Bioscreen microbiology reader (Labsystems, Helsinki, Finland) was employed to continuously grow cells and measure cell growth for 16 h at 37° C. Measurements were taken every 20 min with shaking to prevent cell aggregation.

[3] = system: S. mutans wild-type UA159; assay: S. mutans competence assay (genetic transformation with plasmid pDL289); type: cell-based, Streptococcus mutans; details: 5 μg/ml of peptide analog; for Transformation efficiency (vs no CSP): compared with natural transformation without exogenous CSP, 'no effect' = no significant difference by comparison with CSP; for Transformation efficiency (vs 5 μg CSP): compared with wild-type S. mutans CSP (5 μg CSP)
Protocol: To determine if the peptide analogs had any impact on the development of genetic competence, S. mutans UA159 wild-type cells were assayed for genetic transformation. Overnight cultures of S. mutans UA159 were diluted (1:20) with prewarmed THYE broth and incubated at 37° C. in air with 5% CO2 until an optical density (OD) of approximately 0.1 at 600 nm was reached. The culture was then divided into six aliquots containing 1 μg/ml of plasmid pDL289 and different concentrations (0, 0.1, 0.5, 2, and 5 μg per ml) of peptide analogs. The cultures were incubated at 37° C. in air with 5% CO2 for 2.5 h, gently sonicated for 10 s to disperse the streptococcal chains, and spread on THYE plates containing kanamycin. Plates were incubated at 37° C. in air with 5% CO2 for 48 h. Total recipient cells were counted by spreading serial dilutions on THYE agar plates without antibiotic. Transformation efficiency was expressed as the percentage of kanamycin resistant transformants over the total number of recipient cells.

S. sobrinus = assay: Growth and biofilm formation on polystyrene microtiter plates, crystal violet; type: cell-based, Streptococcus sobrinus; details: for Biofilm formation: additional studies
Protocol: (§1) They were grown in Todd-Hewitt broth containing 0.3% yeast extract (THYE) at pH 5.5 or 7.5. […] In liquid media, cultures were incubated in closed screw-cap tubes without agitation at 37° C. in an anaerobic chamber (5% CO2).
(§2) Wells without cells were used as blank controls.

S. mitis = assay: as above; type: cell-based, Streptococcus mitis; details: for Biofilm formation: additional studies
Protocol: as §1, §2

S. gordonii = assay: as above; type: cell-based, Streptococcus gordonii; details: for Biofilm formation: additional studies
Protocol: as §1, §2

S. pneumoniae = assay: as above; type: cell-based, Streptococcus pneumoniae; details: for Biofilm formation: additional studies
Protocol: as §1, §2

S. oralis = assay: as above; type: cell-based, Streptococcus oralis; details: for Biofilm formation: additional studies
Protocol: as §1, §2

S. sanguis = assay: as above; type: cell-based, Streptococcus sanguis; details: for Biofilm formation: additional studies
Protocol: as §1, §2

[4] = system: mixed culture of the above Streptococcus spp.; assay: Mixed culture biofilm formation; type: cell-based; details: data not shown
Source text: as §2

Substance	Bioflim formation (SDM-glucose) [1]	Growth (pH 7.5) [2]	Acid resistance (pH 5.5) [2]	other results
A2: S. mutans CSP analog, 5th residue removed from C′ (SGSLSTFFRLFNASFTQALGK; E2 peptide analog)	no effect	no effect	significant decrease in cell growth	–
B1: S. mutans CSP analog, 2nd residue removed from N′ (SGSLSTFFRLFNRSFTQALK; F1 peptide analog)	no effect	↓growth	growth	Transformation efficiency (vs no CSP) [3]: no effect; Transformation efficiency (vs 5 μg CSP) [3]: no significant effect
C1: S. mutans CSP analog, 3rd residue removed from N′ (SGSLSTFFRLFNRSFTQAGK; G1 peptide analog)	no effect	↓growth	growth	Transformation efficiency (vs no CSP) [3]: no effect; Transformation efficiency (vs 5 μg CSP) [3]: no significant effect
D1: S. mutans CSP analog, 4th residue removed from N′ (SGSLSTFFRLFNRSFTQLGK; H1 peptide analog)	no effect	↓growth	growth	–
E1: S. mutans CSP analog, 5th residue removed from N′ (SGSLSTFFRLFNRSFTALGK; A2 peptide analog)	no effect	↓growth	growth	–
F1: S. mutans CSP analog, 2nd residue removed from C′ (SGSLSTFFVLFNRSFTQALGK; B2 peptide analog)	–	diminution of cell growth	diminution of cell growth	Biofilm formation (S. sobrinus): significantly reduce biofilm formation; Biofilm formation (S. mitis): significantly reduce biofilm formation; Biofilm formation (S. gordonii): significantly reduce biofilm formation; Biofilm formation (S. pneumoniae): significantly reduce biofilm formation; Biofilm formation (S. oralis): significantly reduce biofilm formation; Biofilm formation (S. sanguis): significantly reduce biofilm formation
G1: S. mutans CSP analog, 3rd residue removed from C′ (SGSLSTFFALFNRSFTQALGK; C2 peptide analog)	–	↓growth	growth	–
IH-1: S. mutans CSP analog, 1st residue removed from N′ (SGSSTFFRLFNRSFTQALGK; D1 peptide analog)	no effect	↓growth	growth	Transformation efficiency (vs no CSP) [3]: no effect^a; Transformation efficiency (vs 5 μg CSP) [3]: no significant effect
IH-2: S. mutans CSP analog, 1st residue removed from C′ (SGSLTFFRLFNRSFTQALGK; E1 peptide analog)	no effect	↓growth	growth	Transformation efficiency (vs no CSP) [3]: no effect; Transformation efficiency (vs 5 μg CSP) [3]: no significant effect
SGSLSTFFALFNRSFTQALGK (SGSLSTFFRLFNRSFTQALGA; G2 peptide analog) [C2, S. mutans CSP analog, substitution of 1st R residue with A]	no effect	no effect	significant decrease in cell growth	Biofilm formation (S. sobrinus): significantly reduce biofilm formation; Biofilm formation (S. mitis): significantly reduce biofilm formation; Biofilm formation (S. gordonii): significantly reduce biofilm formation; Biofilm formation (S. pneumoniae): significantly reduce biofilm formation; Biofilm formation (S. oralis): significantly reduce biofilm formation; Biofilm formation (S. sanguis): significantly reduce biofilm formation
SGSLSTFFRLFNASFTQALGK [E2]	–	no effect; also recorded: without affecting the cell growth	significant decrease in cell growth; also recorded: inhibited cell growth	Growth (S. sobrinus; 5 μg/ml): inhibitory effects; Biofilm formation (S. sobrinus): significantly reduce biofilm formation; Growth (S. mitis; 5 μg/ml): inhibitory effects; Biofilm formation (S. mitis): significantly reduce biofilm formation; Growth (S. gordonii; 5 μg/ml): inhibitory effects; Biofilm formation (S. gordonii): significantly reduce biofilm formation; Mixed culture biofilm formation [4]: significant inhibitory effect; Growth (S. pneumoniae; 5 μg/ml): inhibitory effects; Biofilm formation (S. pneumoniae): significantly reduce biofilm formation; Growth (S. oralis; 5 μg/ml): inhibitory effects; Biofilm formation (S. oralis): significantly reduce biofilm formation; Growth (S. sanguis; 5 μg/ml): inhibitory effects; Biofilm formation (S. sanguis): significantly reduce biofilm formation
SGSLSTFFRLFNRSFTQALGA [G2, S. mutans CSP analog, substitution of K residue with A]	–	diminution of cell growth	diminution of cell growth	–
SGSLSTFFRLFNRSFTQALGV [F2, S. mutans CSP analog, substitution of K residue with V]	–	diminution of cell growth	diminution of cell growth	–
SGSLSTFFRLFNVSFTQALGK [D2, S. mutans CSP analog, substitution of 2nd R residue with V]	no effect	no effect	significant decrease in cell growth	–
SGSLSTFFVLFNRSFTQALGK (SGSLSTFFRLFNRSFTQALGV; F2 peptide analog) [B2, S. mutans CSP analog, substitution of 1st R residue with V]	no effect	no effect	significant decrease in cell growth	–
SGTLSTFFRLFNRSFTQALGK [B3]	–	no effect	significant decrease in cell growth	Biofilm formation (S. sobrinus): significantly reduce biofilm formation; Biofilm formation (S. mitis): significantly reduce biofilm formation; Biofilm formation (S. gordonii): significantly reduce biofilm formation; Biofilm formation (S. pneumoniae): significantly reduce biofilm formation; Biofilm formation (S. oralis): significantly reduce biofilm formation; Biofilm formation (S. sanguis): significantly reduce biofilm formation

From patent US7556807B2, “Signal peptides, nucleic acid molecules and methods for treatment of caries” (priority 2001, dated 2009)
